Measured values: patent publication US5153175A, “Method of inducing sleep with GHRH complementary peptide compositions” (University of Tennesee Research Corporation, priority 1989, dated 1992)
Ends that are not written are not given here.

How the values were obtained:
[1] = tested on: rabbits; assay: Biological assay for sleep-promoting activity in rabbits after intracerebroventricular infusion (EEG, body movement, temperature); assay type: in vivo; details: rabbit; for time spent in SWS / time spent in rapid-eye-movement sleep: after administration, vs control
Experimental: Biological assays for sleep-promoting activity were performed on rabbits provided with chronically implanted ventricular guide tubes and four epidural screw electrodes for EEG. The animals were allowed at least one week to recover from surgery prior to their use for assays. Samples for testing were taken up in sterile artificial cerebrospinal fluid and a total of […] solution was infused intraventricularly (ICV) at the rate of 25 ul/min through a No. 26 hypodermic needle inserted through a guide tube. Following the infusion and removal of the infusion probe the animals were left undisturbed for 6-8 hours while EEG and bodily movements were recorded.
Slow wave sleep (SWS) was scored in two ways: (i) by conventional subjective scoring of the duration of SWS from polygraph records and (ii) by digital print-out of integrated mean rectified cortical slow waves (1/2-4 Hz). thus obtaining a measure of the amplitude was well as duration of delta wave EEG activity. Control animals were also assayed at the same time.
Operation and experimental procedure. Adult male New Zealand White Pasteurella-free rabbits, weighing 3-4 kg, were purchased from Myrtle's Rabbitry (Thompson Station, Tenn.). Under ketamine-xylazine (3.5-5.0 mg/kg iv) anesthesia, animals were provided with chronically implanted EEG electrodes, a glass-bead thermistor, and a cerebral ventricular guide tube (Krueger, J.M et al., Am. J. Physiol. 251 (Regulatory Integrative Comp. Physiol. 20): R591-R597, 1986; and Walter J.D. et al., Am. J. Physiol., 250 (Regulatory Integrative Comp. Physiol. 19): R96-R103, 1986). Briefly, stainless steal screws were implanted over the frontal parietal, and occipital cortex; and a small (1 mm diam) 50-k.OMEGA. thermistor (Fenwall Electronics) was placed 3 mm into the parietal cortex. Wires from Amphenol plugs (no. 223-1509) were soldered to the screws for EEG recordings and to the thermistors for brain temperature (Tbr) recordings. The ventricular guide tube was implanted 4 mm lateral to the bregma; during the implantation procedure, pressure at the tip of the infusion needle was monitored and used as an aid to locate the ventricle (See, e.g., Krueger, J.M et al., Am. J. Physiol., 246 (Regulatory Integrative Comp. Physiol. 15): R994-R999, 1984). Dental acrylic (DuzAll) was then used to insulate the leads and to secure the guide tube and EEG/thermistor plugs to the skull. A topical antibiotic (Bacitracin, Lilly) was applied to the incision, and 150,000 U of Duracillin (Lilly) were administered intramuscularly. At least 1 week was allowed for recovery.
Animals were housed in rooms on a 12:12-h light-dark cycle (0600-1800 h light) maintained at 21 ±2° C. The day before an experiment animals were brought to experimental chambers (Hotpack model 352600) for an overnight acclimation period. Each experimental chamber was also kept at 21 ±2° C. on a 12:12-h light-dark cycle. Food and water were available ad libitum at all times. At the top of the recording chamber, BRS/LVE electrical contact swivel was fixed; this allowed the rabbits free movement during recording periods. From the other end of the swivel a cable led to a Grass polygraph model 7D. Before each recording period the rabbits were connected to the recording cable for a 1-h habituation period, but data were not collected during this time.
Rabbits were then briefly taken out of the experimental cages and given the 3'-5' or 5'-3' CP (the "test substance"). [When animals received intracerebroventricular (ICV) injections, appropriate amounts of test substances (0.1-10.0 ul) were diluted to 50 ul with artificial CSF [3 mM KCL, 1.15 mM CaCl2 and 0.96 mM MgCl2 in pyrogen-free saline (PFS), […] NaCl (Abbott)]; these solutions were slowly infused over 2 min. […]

[2] = amino acids added to carboxyl terminal of N-acetyl muramyl-L-alanyl-D-isoglutamine; cited from earlier work
[3] = tested on: growth hormone release; details: relative potency of C-terminal deleted hGHRH fragments; cited from earlier work
[4] = tested on: rat pituitary gland; details: cited from earlier work
[5] = tested on: lactating holstein cows; details: cited from earlier work

## H-DPVNIRAFDDVL-NH2 [3'-5' CP, H-Asp-Pro-Val-Asn-Ile-Arg-Ala-Phe-Asp-Asp-Val-Leu-NH2]
[1]; ICV
  behavior (arousable; eat, drink and groom): behavior was normal
  capacity to enhance sleep: have the capacity to enhance sleep
  character of the excess sleep (cycling through states of vigilance): appeared normal
  temperatures of the animals: remained normal
  time spent in SWS: significantly more time
  time spent in rapid-eye-movement sleep: significantly more time

## H-VEPGSLFLVPLPLLPVHDFVQQFAGI-NH2 [5'-3' CP]
[1]; ICV
  capacity to enhance sleep: have the capacity to enhance sleep
  time spent in SWS: significantly more time
  time spent in rapid-eye-movement sleep: significantly more time
[1]; in vivo
  behavior (arousable; eat, drink and groom): behavior was normal
  character of the excess sleep (cycling through states of vigilance): appeared normal
  temperatures of the animals: remained normal

## N-acetyl-muramyl-L-alanyl-D-isoglutamyl-L-diaminopimelyl alanine
[2]
  somnogenic activity: somnogenic activity is retained

## hGHRH (1-19): C-terminal deleted GHRH fragment (YADAIFTNSYRKVLGQLSA; Somatoliberin; UniProt P01286 32-50, looked up, fragment)
[3]
  relative GH-releasing potency: No activity

## hGHRH (1-24): C-terminal deleted GHRH fragment (YADAIFTNSYRKVLGQLSARKLLQ; Somatoliberin; UniProt P01286 32-55, looked up, fragment)
[3]
  relative GH-releasing potency: 0.02%

## hGHRH (1-27): C-terminal deleted GHRH fragment (YADAIFTNSYRKVLGQLSARKLLQDIM; Somatoliberin; UniProt P01286 32-58, looked up, fragment)
[3]
  relative GH-releasing potency: 12%

## human GHRH: Growth Hormone Releasing Hormone, hypothalamic peptide which positively regulates the synthesis and secretion of growth hormone (YADAIFTNSYRKVLGQLSARKLLQDIMSRQQGESNQERGARARL; ends and bridges not checked; UniProt P01286 32-75, looked up)
[4]
  GH-stimulating effect: a GH-stimulating effect on the rat pituitary gland
[5]
  feed to milk conversion: apparent increase
  secretion of growth hormone: increases the secretion of growth hormone consistently
